Source: patent US4267189A, “Method of use and composition for 1,3-dihydro-3-(2-hydroxy-2-methylpropyl)-2H-isoindol-1-one” (American Home Products Corporation, priority 1979, dated 1981)

Experiments:
[1] = tested on: Indomethacin-Induced Ulcer Formation; assay: Indomethacin-induced ulcer formation; format: in vivo, rat (female albino Sprague-Dawley); conditions: for Ulcers Formed: mean ± S.E.; for ED50: Rattus norvegicus, indomethacin-induced ulcers, oral, doses in mg/kg
Procedure: The method utilized for the production and evaluation of indomethacin-induced ulcer formation was essentially as described by Y. H. Lee et al., Arch. Int. Pharmacodyn. […] Indomethacin (20 mg/kg, i.p.) was given, the animals sacrificed by cervical dislocation 5 hr later and the number of ulcers present in the glandular portion of the stomach determined. The test compound was administered orally (0.2 ml) 1 hr before the indomethacin. The vehicle employed for the administrations was water containing Tween 80 (1 drop per 7 ml). There were 12-32 animals per group.

[2] = tested on: Oxotremorine-Induced Effects; assay: Anticholinergic activity: antagonism of oxotremorine-induced effects (temperature, tremor, salivation, lacrimation); format: in vivo, mice; conditions: for Lacrimation (L) score / Salivation (S) score / Tremor (T) score: 2=strong, 1=weak, 0=none
Procedure: Anticholinergic activity was examined in vivo by determining the ability of the compound to antagonize oxotremorine-induced effects according to the method described by P. S. J. Spencer, Life Sci., 5, 1015 (1965). […] Rectal temperature was measured with a YSI telethermometer 402 physiological probe before administration of test compounds and oxotremorine and at 15 and 30 min after oxotremorine. At the same time the degree of tremor, salivation and lacrimation was scored as follows: 2=strong; 1=weak; 0=none.

[3] = tested on: Cold-Restraint-Induced Ulcer Formation; assay: Cold-restraint-induced ulcer formation; format: in vivo, rat (male albino Sprague-Dawley); conditions: for Ulcers Formed: mean ± S.E.; for ED50: Rattus norvegicus, cold-restraint ulcers, oral, doses in mg/kg
Text: Int. Pharmacodyn. […] Exp. Biol. Med., 113, 998 (1963) as modified by E. C. Senay and R. J. Levine Proc. Soc. Exp. Biol. Med., 124, 1221 (1967) when administered orally or parenterally (see Examples 3 and 4).
To assess the effects of the test compound on the development of cold-restraint-induced gastric lesions, the method of D. A. Brodie and L. S. Valitski Proc. Soc. Exp. Biol. Med., 113, 998 (1963) as modified by E. C. Senay and R. J. Levine Proc. Soc. Exp. Biol. Med., 124, 1221 (1967) was used. Food was withheld from male albino rats (165-175 g, Sprague-Dawley, Canadian Breeding Laboratories) for 24 hr but water was freely available. The test compound was administered orally (0.2 ml) to the animals (8-24 per group) 30 min before placing the animals into restrainers, the restrainer was made of plexiglass and restricted the movement of the rat to a minimum. The vehicle employed was as described above. The restrainers were placed in a cold environment (4°-7° C.) for 2 hr. The animals were sacrificed by cervical dislocation, the stomachs removed and the number of ulcers in the glandular portion of the stomach determined.

gastric acid secretion [4] = conditions: Lee et al.; cited from earlier work
Gastric Acid Secretion [5] = assay: Basal gastric acid secretion in the Shay (pylorus-ligated) rat; format: in vivo, rat (female Sprague Dawley); conditions: for Gastric Acid Output: mean ± S.E.; for ED50: Rattus norvegicus, gastric acid secretion; for basal gastric acid secretion (in words): rat
Procedure: Female Sprague Dawley rats (Canadian Breeding Laboratories; 160-180 g) were fasted for 48 hours before pyloric ligation. After the first 24 hours of fasting the animals were given access to 8% sucrose in 0.2% sodium chloride for 8 hours. Water was permitted ad libitum except during the 8 hour access to sucrose and after the drug treatment. The compounds were suspended in water with the aid of one drop of Tween 80 per 7 ml for oral or intraperitoneal administration. The pylorus was ligated under ether anesthesia and the sutured incision was covered with flexible collodion to prevent the animals from ingesting adhering blood. The stomachs were lavaged with 0.9% sodium chloride until the return solution was clear. Four hours after pyloric ligation, the animals were killed with diethyl ether and the gastric contents were collected in centrifuge tubes. The amount of acid in the centrifuged gastric juice was determined by titration against 0.1 N sodium hydroxide in a direct reading pH meter of pH 7.0.
Student's t test was used in the evaluation of the data. The ED50 's were obtained graphically by plotting the percent inhibition of gastric acid secretion versus the logarithm of the dose of the compound.

[6] = 2 mg/kg i.p., 15 min after oxotremorine
[7] = 2 mg/kg i.p., 30 min after oxotremorine
[8] = 5 mg/kg i.p., 15 min after oxotremorine
[9] = 5 mg/kg i.p., 30 min after oxotremorine
[10] = 25 mg/kg i.p., 15 min after oxotremorine
[11] = 25 mg/kg i.p., 30 min after oxotremorine
[12] = 100 mg/kg i.p., 15 min after oxotremorine
[13] = 100 mg/kg i.p., 30 min after oxotremorine

With `CN1[C@@H]2CC[C@H]1C[C@@H](OC(=O)C(CO)c1ccccc1)C2` (some centres unmarked) [Atropine, reference compound] the “Ulcers Formed (% Inhibition)” value ([1]; 1 mg/kg p.o.) was 47 % Inhibition, the “Ulcers Formed” value ([1]; 1 mg/kg p.o.) was 5.2 ± 1.5 and the “Ulcers Formed (% Inhibition)” value ([1]; 2 mg/kg p.o.) was 85 % Inhibition. For the same compound, the “Ulcers Formed” value ([1]; 2 mg/kg p.o.) was 1.5 ± 0.8, the ED50 [1] was 1.1 mg/kg and the “Temperature Before Oxotremorine” value ([2]; 2 mg/kg i.p.) was 37.6 ± 0.2 °C. For the same compound, the “Temperature after Oxotremorine” value ([2]; 2 mg/kg i.p., 15 min) was 36.7 ± 0.4 °C, the “Lacrimation (L) score” value [2, 6] was 0 and the “Salivation (S) score” value [2, 6] was 0. The “Tremor (T) score” value [2, 6] was 0, the “Temperature after Oxotremorine” value ([2]; 2 mg/kg i.p., 30 min) was 35.7 ± 0.4 °C and the “Lacrimation (L) score” value [2, 7] was 0. The “Salivation (S) score” value [2, 7] was 0, the “Tremor (T) score” value [2, 7] was 0 and the “Temperature Before Oxotremorine” value ([2]; 5 mg/kg i.p.) was 37.2 ± 0.3 °C. The “Temperature after Oxotremorine” value ([2]; 5 mg/kg i.p., 15 min) was 36.9 ± 0.2 °C, the “Lacrimation (L) score” value [2, 8] was 0 and the “Salivation (S) score” value [2, 8] was 0. For the same compound, the “Tremor (T) score” value [2, 8] was 0.16, the “Temperature after Oxotremorine” value ([2]; 5 mg/kg i.p., 30 min) was 36.9 ± 0.3 °C and the “Lacrimation (L) score” value [2, 9] was 0.16. The “Salivation (S) score” value [2, 9] was 0 and the “Tremor (T) score” value [2, 9] was 0.

For `CN(C)CCCN1c2ccccc2CCc2ccccc21` [Imipramine, reference compound], the “Ulcers Formed (% Inhibition)” value ([3]; 1.25 mg/kg p.o.) was 37 % Inhibition, the “Ulcers Formed” value ([3]; 1.25 mg/kg p.o.) was 4.1 ± 1.5 and the “Ulcers Formed (% Inhibition)” value ([3]; 2.5 mg/kg p.o.) was 68 % Inhibition. For the same compound, the “Ulcers Formed” value ([3]; 2.5 mg/kg p.o.) was 2.1 ± 0.8, the “Ulcers Formed (% Inhibition)” value ([3]; 5 mg/kg p.o.) was 81 % Inhibition and the “Ulcers Formed” value ([3]; 5 mg/kg p.o.) was 1.2 ± 0.4. For the same compound, the ED50 [3] was 1.7 mg/kg.

For `COc1ccc2c(c1)c(CC(=O)O)c(C)n2C(=O)c1ccc(Cl)cc1` [Indomethacin], the “effect on gastric acid secretion (in words)” value (gastric acid secretion [4]) is listed as “no effect on gastric acid secretion” and the “ulcer formation (in words)” value (gastric acid secretion [4]) is listed as “induces ulcer formation”.

In the case of `CC(C)(O)CC1NC(=O)c2ccccc21` (centres unmarked) [Isoindol-1-one, 1,3-dihydro-3-(2-hydroxy-2-methylpropyl)-2H-isoindol-1-one], the “Ulcers Formed (% Inhibition)” value ([1]; 25 mg/kg p.o.) is reported as 50 % Inhibition, the “Ulcers Formed” value ([1]; 25 mg/kg p.o.) is reported as 4.9 ± 1.2 and the “Ulcers Formed (% Inhibition)” value ([1]; 50 mg/kg p.o.) is reported as 75 % Inhibition. The “Ulcers Formed” value ([1]; 50 mg/kg p.o.) was 2.4 ± 0.7, the “Ulcers Formed (% Inhibition)” value ([1]; 100 mg/kg p.o.) was 82 % Inhibition and the “Ulcers Formed” value ([1]; 100 mg/kg p.o.) was 1.8 ± 0.6. For the same compound, the ED50 [1] was 22 mg/kg, the “indomethacin-induced ulcer formation (in words)” value ([1]; rat, orally or parenterally) was “inhibiting indomethacin-induced ulcer formation in the rat” and the “Temperature Before Oxotremorine” value ([2]; 25 mg/kg i.p.) was 36.7 ± 0.2 °C. The “Temperature after Oxotremorine” value ([2]; 25 mg/kg i.p., 15 min) was 31.4 ± 0.2 °C, the “Lacrimation (L) score” value [2, 10] was 2.0 and the “Salivation (S) score” value [2, 10] was 2.0. For the same compound, the “Tremor (T) score” value [2, 10] was 2.0, the “Temperature after Oxotremorine” value ([2]; 25 mg/kg i.p., 30 min) was 29.2 ± 0.2 °C and the “Lacrimation (L) score” value [2, 11] was 2.0. For the same compound, the “Salivation (S) score” value [2, 11] was 2.0, the “Tremor (T) score” value [2, 11] was 2.0 and the “Temperature Before Oxotremorine” value ([2]; 100 mg/kg i.p.) was 32.8 ± 0.2 °C. The “Temperature after Oxotremorine” value ([2]; 100 mg/kg i.p., 15 min) was 31.2 ± 0.1 °C, the “Lacrimation (L) score” value [2, 12] was 0.7 and the “Salivation (S) score” value [2, 12] was 2.0. The “Tremor (T) score” value [2, 12] was 2.0, the “Temperature after Oxotremorine” value ([2]; 100 mg/kg i.p., 30 min) was 30.5 ± 0.2 °C and the “Lacrimation (L) score” value [2, 13] was 1.0. For the same compound, the “Salivation (S) score” value [2, 13] was 2.0, the “Tremor (T) score” value [2, 13] was 2.0 and the “anticholinergic activity (in words)” value ([2]; see Example 5) was “does not exhibit appreciable anticholineric activity”. For the same compound, the “Ulcers Formed (% Inhibition)” value ([3]; 50 mg/kg p.o.) was 40 % Inhibition, the “Ulcers Formed” value ([3]; 50 mg/kg p.o.) was 3.9 ± 1.2 and the “Ulcers Formed (% Inhibition)” value ([3]; 100 mg/kg p.o.) was 55 % Inhibition. For the same compound, the “Ulcers Formed” value ([3]; 100 mg/kg p.o.) was 2.9 ± 0.5, the “Ulcers Formed (% Inhibition)” value ([3]; 200 mg/kg p.o.) was 69 % Inhibition and the “Ulcers Formed” value ([3]; 200 mg/kg p.o.) was 2.0 ± 0.8. The ED50 [3] was 80 mg/kg, the “cold-restraint-induced ulcer formation (in words)” value ([3]; rat, orally or parenterally) was “cold-resistant-induced ulcer formation in the rat” and the “Gastric Acid Output (% Inhibition)” value (Gastric Acid Secretion [5]; 12 mg/kg i.p.) was 18 % Inhibition. The “Gastric Acid Output” value (Gastric Acid Secretion [5]; 12 mg/kg i.p.) was 448 ± 59 μEg/4 hr, the “Gastric Acid Output (% Inhibition)” value (Gastric Acid Secretion [5]; 25 mg/kg i.p.) was 49 % Inhibition and the “Gastric Acid Output” value (Gastric Acid Secretion [5]; 25 mg/kg i.p.) was 275 ± 57 μEg/4 hr. For the same compound, the “Gastric Acid Output (% Inhibition)” value (Gastric Acid Secretion [5]; 25 mg/kg p.o.) was 48 % Inhibition, the “Gastric Acid Output” value (Gastric Acid Secretion [5]; 25 mg/kg p.o.) was 226 ± 48 μEq/4 hr and the “Gastric Acid Output (% Inhibition)” value (Gastric Acid Secretion [5]; 50 mg/kg i.p.) was 90 % Inhibition. For the same compound, the “Gastric Acid Output” value (Gastric Acid Secretion [5]; 50 mg/kg i.p.) was 56 ± 12 μEg/4 hr, the “Gastric Acid Output (% Inhibition)” value (Gastric Acid Secretion [5]; 50 mg/kg p.o.) was 65 % Inhibition and the “Gastric Acid Output” value (Gastric Acid Secretion [5]; 50 mg/kg p.o.) was 154 ± 33 μEq/4 hr. The “Gastric Acid Output (% Inhibition)” value (Gastric Acid Secretion [5]; 100 mg/kg p.o.) was 84 % Inhibition, the “Gastric Acid Output” value (Gastric Acid Secretion [5]; 100 mg/kg p.o.) was 71 ± 19 μEq/4 hr and the ED50 (Gastric Acid Secretion [5]; ip, intraperitoneal administration) was 25 mg/kg. For the same compound, the ED50 (Gastric Acid Secretion [5]; oral administration) was 28 mg/kg, the “basal gastric acid secretion (in words)” value (Gastric Acid Secretion [5]; listed as 1,3-Dihydro-3-(2-hydroxy-2-methylpropyl)-2H-isoindol-1-one) was “inhibiting basal gastric acid secretion in the rat” and the “basal gastric acid secretion (in words)” value (Gastric Acid Secretion [5]; listed as 1,3-dihydro-3-(2-hydroxy-2-methylpropyl)-2H-isoindol-1-one) was “can inhibit gastric acid secretion”.
